# From patent US12729194B2, “Compounds for the treatment of human immunodeficiency virus” (priority 2019, dated 2026)
# How the values were obtained:
# [1] = tested on: HIV-1 with BG505 Env; assay: microbe, parasite or virus in culture; assay type: cell-based; conditions: Human immunodeficiency virus 1; Cf2Th-CD4/CCR5 target cells, 48 hours, luciferase; means and standard errors of four experiments; read-out: 50% inhibitory concentration (IC50), BG505
# [2] = tested on: envelope glycoproteins of the amphotropic murine leukemia virus (AMLV); assay: microbe, parasite or virus in culture; assay type: cell-based; conditions: Cf2Th-CD4/CCR5 target cells, 48 hours, luciferase, specificity control, read-out: 50% inhibitory concentration (IC50), AMLV
# [3] = tested on: HIV-1AD8 Env on VLPs; assay: Reversibility of compound effects on VLP Env conformation (19b antibody recognition after washing)
# Method: (§1) Characterization of VLP-associated Env: To prepare VLPs with HIV-1AD8 Env, 150-mm dishes of 30-40% confluent A549-Gag/Env cells were seeded and, on the following day, treated with 2 μg/ml doxycycline. Approximately 72 hours after induction, cell supernatants were harvested and cleared by low-speed centrifugation (500×g for 15 minutes at 4° C.) and 0.45-μ filtration. VLPs were pelleted by centrifugation at 100,000×g for one hour at 4° C. The resuspended VLP preparation was clarified by low-speed centrifugation. BMS-806 and compounds described herein were added to the clarified VLP-containing suspensions. In some cases, the VLP-compound mixtures were irradiated with a 100-watt, 365-nm ultraviolet (UV) lamp for 10 minutes at room temperature. For all UV studies, exposure of the samples to visible light was minimized.
# For studies of the reversibility of effects, the compounds were added to the VLPs and mixed for several seconds at room temperature. Then the VLPs were pelleted (20,000×g for 30 minutes at 4° C.) twice, washing with 1.5 ml PBS with 2% DMSO. The pelleted VLPs were resuspended in 1 ml PBS with 2% DMSO and incubated at room temperature for various lengths of time (20 minutes—3 weeks). Control VLPs were incubated in the continued presence of the compounds at room temperature for the same length of time. Then the VLPs were pelleted (20,000×g for 30 minutes at 4° C.) and the pellet incubated with 1.5% Triton X-100 for 30 minutes at 4° C. The VLP lysates were centrifuged (20,000×g for 30 minutes at 4° C.) and the supernatants were incubated with antibodies (10 μg/ml) in a 50-μl volume with 25 mg/ml of Protein A-Sepharose beads for one hour at 4° C. The beads were pelleted (1000 rpm for 1 minute at room temperature) and washed three times with 1 ml wash buffer with 1% Triton X-100. The beads were suspended in NuPAGE LDS Sample Buffer (ThermoFisher), boiled and analyzed by Western blot, as described above.
# The BMS-806-induced decrease in binding of the 19b anti-V3 antibody can be used as an indicator of BMS-806-Env binding, allowing estimation of the stability of the Env-compound complex. BMS-806 and BMS-529 were incubated with the HIV-1AD8 Env on VLPs. The VLPs were then washed and incubated at room temperature for various lengths of time in a buffer with (+/+) or without (+/−) compound. After this incubation, Env conformation was assessed using the 19b anti-V3 antibody, the 2G12 antibody (the binding of which is not affected by BMS-806), and a negative control human immunoglobulin (hIgG) preparation. 19b recognition of Env in the washed samples (+/−) was compared with those in the samples continuously incubated with the compound (+/+) and the untreated samples (−) (FIG. 4). […] Despite this slow rate of dissociation of compounds described herein from Env, the binding and the consequent effects of these compounds on Env conformation appear to be reversible.
# [4] = tested on: HIV-1AD8 Env on VLPs; assay: Shedding of gp120 from VLP Env; conditions: 4° C. and 37° C., 4 days, no detergent
# Method: Shedding of gp120 from VLP Env: The effect of compounds on the spontaneous shedding of gp120 from VLP Env was evaluated. VLPs with the wild-type HIV-1AD8 Env were prepared from the supernatants of A549-Gag/Env cells, as described above. The VLPs were suspended in PBS, to which was added either DMSO or a compound described herein. An aliquot of the VLP suspension in PBS/DMSO was processed as described below to serve as a Day 0 control. The VLP suspensions were incubated for 4 days at 4° C., room temperature or 37° C. (with gentle rocking). Then the VLPs were pelleted (100,000×g for 30 min at 4° C.). The pellets and supernatants were boiled in LDS sample buffer and analyzed by Western blotting with either 1:2000 goat anti-gp120 polyclonal antibody (ThermoFisher) and HRP-conjugated rabbit anti-goat IgG antibody, or with 1:5000 rabbit anti-Gag p55/p24/p17 antibody (Abcam) and HRP-conjugated goat anti-rabbit IgG antibody (Abcam).
# [5] = tested on: VLP HIV-1AD8 Env; assay: Antibody recognition of VLP-associated Env
# Method: as §1
# For studies of the binding of ligands (antibodies, CD4-Ig and C34-Ig) to detergent-solubilized VLP Env, VLPs prepared as described above were pelleted (20,000×g for 30 minutes at 4° C.). The pellet was incubated with 1.5% Triton X-100 for 30 minutes at 4° C. The VLP lysates were centrifuged (20,000×g for 30 minutes at 4° C.) and the supernatants were incubated with ligands (10 μg/ml) in a 50-μl volume with 25 mg/ml of Protein A-Sepharose beads for one hour at 4° C. The beads were pelleted (1000 rpm for 1 minute at room temperature), washed three times with 1 ml wash buffer with 1% Triton X-100, suspended in LDS Sample Buffer and analyzed by Western blot, as described above.
# In a second assay format, the effect of the compounds was analyzed on the binding of antibodies to Env on intact VLPs, in the absence of detergent. In this case, VLPs in A549-Gag/Env supernatants, clarified as described above, were pelleted at 100,000×g for one hour at 4° C. The pellet was resuspended in PBS and the VLPs pelleted at 20,000×g for 30 minutes at 4° C. The VLPs were resuspended in PBS and incubated with antibodies (10 μg/ml) in a 100-μl volume for one hour at 4° C. The VLPs were then pelleted (20,000×g for 30 minutes at 4° C.) and washed with PBS three times. The VLP pellet was then solubilized in 1.5% Triton X-100 for 30 minutes at 4° C., after which the VLP lysates were clarified by centrifugation at 20,000×g for 30 minutes at 4° C. The supernatants were incubated with 50 μl of Protein A-Sepharose beads for one hour at 4° C. The beads were pelleted (1000 rpm for 1 minute at room temperature), washed three times with 1 ml wash buffer with 1% Triton X-100, suspended in LDS Sample Buffer, and analyzed by Western blot, as described above.
Structure (SMILES),IC50 [1],IC50 [2],Durability / reversibility of Env conformational effects (in words) ([3]; after washing),Spontaneous shedding of gp120 into the VLP supernatant [4],"VLP Env recognition by poorly neutralizing antibodies two weeks after treatment ([5]; compound plus UV irradiation, washed, two weeks without compound)","VLP Env recognition by bNAbs two weeks after treatment ([5]; compound plus UV irradiation, PG9, PGT145, PGT151, 35022, 2F5, 4E10, 10E8)","Conformational effect on 19b binding after washing ([3]; twenty-four hours after washing, room temperature)",Recognition of VLP Env by poorly neutralizing antibodies [5],"Recognition of mature VLP gp120 Env by quaternary-epitope bNAbs ([5]; PG9, PG16, PGT145, PGT151, 35O22)"
COc1ccc(-c2ccc(CNC(=O)c3c(F)c(F)c(N=[N+]=[N-])c(F)c3F)o2)c2[nH]cc(C(=O)C(=O)N3CCN(C(=O)c4ccccc4)CC3)c12 [AEG-II-168],0.22 nM,> 100 nM,at least three weeks,decreased the shedding of gp120,lowered Env recognition by poorly neutralizing antibodies,increased recognition by several bNAbs,,,
"COc1ccnc2[nH]cc(C(=O)C(=O)N3CCN(C(=O)c4ccccc4)C[C@H]3C)c12 [BMS-806, reference compound]",0.8 nM,> 100 nM,,decreased the shedding of gp120,,,much less evident,reduced recognition of the uncleaved Env,enhanced the recognition of the mature gp120 Env
